The text below walks through data of PubChem BioAssay (NCI).

Test systems include SF-295 CNS; OVCAR-5 ovarian; HL-60(TB) leukemia; NCI-H226 lung; CAKI-1 renal; A498 renal; SK-MEL-28 melanoma; HCT-116 colon; COLO 205 colon; HOP-92 NSCLC.
Common to all, as to assay: NCI-60 cell line screen, 48 h

SMILES strings stand for the structures.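 Dose response: 5 concentrations. Exposure: 48 h. Format: 96-well plates. Endpoint: linear interpolation; highest concentration if not reached. GI50 is the concentration that inhibits growth by half. TGI denotes the concentration required for complete inhibition of growth.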

For the compound `CCOC(=O)NC(=O)c1cn(C2OC(COC(=O)CCCCCCCCC(=O)OCC3OC(n4cc(C(=O)NC(=O)OCC)c(=O)[nH]c4=O)C(O)C3O)C(O)C2O)c(=O)[nH]c1=O` (stereo not drawn), the TGI in the experiment with SF-295 CNS, in the experiment with OVCAR-5 ovarian, in the experiment on HL-60(TB) leukemia, in the experiment with NCI-H226 lung, in the experiment with CAKI-1 renal and in the experiment with A498 renal was over 100 µM each time. The TGI in the experiment with SK-MEL-28 melanoma and in the experiment with HCT-116 colon was over 100 µM each time.
With `Cc1nc2c(nc1Cl)nc(Oc1ccc(Cl)cc1)c1ccccc12`, the TGI in the experiment with SF-295 CNS was over 100 µM; in the experiment on OVCAR-5 ovarian, over 100 µM; in the experiment on COLO 205 colon, over 100 µM; in the experiment on NCI-H226 lung, 79.9 µM; with CAKI-1 renal, over 100 µM; in the experiment on SK-MEL-28 melanoma, over 100 µM. In addition, the TGI with HCT-116 colon was over 100 µM.
On to `CCCCCCCCCCCC(=O)CC(=O)c1c(O)cccc1O`, for which the TGI in the experiment on SF-295 CNS is 34.8 µM; in the experiment with OVCAR-5 ovarian, 36.4 µM; in the experiment with HL-60(TB) leukemia it was over 100 µM; in the experiment on COLO 205 colon, 31.2 µM; in the experiment on HOP-92 NSCLC, 39 µM; with NCI-H226 lung it was 32.1 µM. For the same compound, the TGI in the experiment with SK-MEL-28 melanoma turned out to be 44.1 µM; in the experiment on HCT-116 colon it was 31.1 µM.
For `N#CSCC1CC(O)(c2ccccc2)C(c2ccccc2)C(c2ccc(Cl)cc2)O1` (stereo not drawn), the GI50 is 1.75 µM in the experiment on SF-295 CNS; 2.13 µM in the experiment on OVCAR-5 ovarian; 1.55 µM in the experiment with HL-60(TB) leukemia; 1.46 µM in the experiment with COLO 205 colon; 2.27 µM with NCI-H226 lung; 1.67 µM in the experiment with CAKI-1 renal. Also, the figures for the GI50 in the experiment with A498 renal, in the experiment on SK-MEL-28 melanoma and with HCT-116 colon were 2.16 µM, 1.97 µM and 0.569 µM, respectively. The TGI was determined as 4.22 µM with SF-295 CNS; 3.86 µM in the experiment with OVCAR-5 ovarian; 5.77 µM in the experiment on HL-60(TB) leukemia; 2.84 µM with COLO 205 colon; 4.62 µM with NCI-H226 lung; 4.14 µM with CAKI-1 renal. The TGI in the experiment on A498 renal amounted to 5.63 µM; in the experiment with SK-MEL-28 melanoma, 4.5 µM; in the experiment with HCT-116 colon it was 1.99 µM.
For `O=C(O)Cn1ccc(=O)c2ccc([N+](=O)[O-])cc21`, the TGI in the experiment with SF-295 CNS, in the experiment on OVCAR-5 ovarian, in the experiment with HL-60(TB) leukemia, in the experiment on COLO 205 colon, in the experiment with NCI-H226 lung and with CAKI-1 renal was over 100 µM throughout. The TGI in the experiment with A498 renal, in the experiment with SK-MEL-28 melanoma and in the experiment with HCT-116 colon was over 100 µM each time.
Take `COC(=O)C1=C(C(=O)OC)C2C=CC1C1C(Cl)=C(Cl)C21` (stereo not drawn): the TGI in the experiment with SF-295 CNS, with OVCAR-5 ovarian, with COLO 205 colon, in the experiment on HOP-92 NSCLC, in the experiment with CAKI-1 renal and in the experiment on SK-MEL-28 melanoma was over 100 µM in each case.
On to `O=C(CI)NC1Oc2ccccc2-c2oc(=O)c(-c3ccccc3)cc21` (stereo not drawn), for which the GI50 is 1.77 µM with SF-295 CNS; 2.09 µM with HL-60(TB) leukemia; 1.81 µM with COLO 205 colon; 3.32 µM with NCI-H226 lung; 1.67 µM in the experiment on CAKI-1 renal; 1.85 µM in the experiment with A498 renal. Also, in the experiment with SK-MEL-28 melanoma, the GI50 was 1.81 µM. Moreover, the TGI worked out at 3.37 µM in the experiment on SF-295 CNS; 4.94 µM in the experiment on HL-60(TB) leukemia; 3.92 µM in the experiment with COLO 205 colon; 29 µM with NCI-H226 lung; 3.05 µM with CAKI-1 renal; 3.62 µM with A498 renal. The TGI with SK-MEL-28 melanoma was 3.31 µM.
On to `OCc1ccc2[n+](c1)CCC1c3ccccc3NC21` (stereo not drawn), for which the TGI in the experiment on SF-295 CNS, with HL-60(TB) leukemia, in the experiment on COLO 205 colon, in the experiment with HOP-92 NSCLC, with NCI-H226 lung and in the experiment with CAKI-1 renal was over 300 µM each time. For the same compound, the TGI in the experiment on SK-MEL-28 melanoma and in the experiment with HCT-116 colon was over 300 µM throughout.
`Cc1ccc(S(=O)(=O)C(CC(=O)N2CCCC2)C(=O)c2ccccc2)cc1` (stereo not drawn): the TGI in the experiment on SF-295 CNS was over 100 µM; in the experiment with OVCAR-5 ovarian, over 100 µM; in the experiment on HL-60(TB) leukemia, 52.7 µM; with COLO 205 colon, over 100 µM; with HOP-92 NSCLC, over 100 µM; in the experiment on CAKI-1 renal, over 100 µM. Moreover, the TGI in the experiment with SK-MEL-28 melanoma and with HCT-116 colon was over 100 µM throughout.
In the case of `N=C1CSC2=NC3=C(CCC/C3=C\c3ccccc3)C(c3ccccc3)N12` (stereo not drawn), the TGI is 19.4 µM in the experiment on SF-295 CNS; 20.1 µM with OVCAR-5 ovarian; 6.3 µM in the experiment with HL-60(TB) leukemia; 21.3 µM with COLO 205 colon; 35.1 µM with NCI-H226 lung; 29.2 µM in the experiment on CAKI-1 renal. In addition, the figures for the TGI in the experiment with A498 renal and in the experiment with HCT-116 colon were 27.6 µM and 13.2 µM, respectively.
As for `COc1cc(OC)cc(-c2ccc(-c3ccc(C(=N)N)o3)o2)c1`, the GI50 is 2.06 µM in the experiment with SF-295 CNS; 2.34 µM in the experiment on OVCAR-5 ovarian; 1.9 µM in the experiment on HL-60(TB) leukemia; 1.84 µM in the experiment with COLO 205 colon; 22.6 µM with NCI-H226 lung; 4.33 µM with CAKI-1 renal. For the same compound, the GI50 is 2.89 µM in the experiment on A498 renal, 1.82 µM with SK-MEL-28 melanoma and 2.51 µM in the experiment on HCT-116 colon. The TGI in the experiment on SF-295 CNS turned out to be 4.25 µM; in the experiment with OVCAR-5 ovarian, 5.25 µM; with HL-60(TB) leukemia it was 4.24 µM; in the experiment on COLO 205 colon, 3.79 µM; with NCI-H226 lung, 44.6 µM; in the experiment with CAKI-1 renal, 16.1 µM. In addition, the TGI in the experiment with A498 renal is 15.3 µM; with SK-MEL-28 melanoma, 3.67 µM; with HCT-116 colon, 6.11 µM.
For the compound `COc1ccc2ccc3c(c2c1)CN1CCc2cc(OC)c(OC)cc2C1C3` (stereo not drawn), the TGI in the experiment on SF-295 CNS, with OVCAR-5 ovarian, in the experiment with HL-60(TB) leukemia, in the experiment on COLO 205 colon, in the experiment on HOP-92 NSCLC and in the experiment with NCI-H226 lung was over 100 µM each time. Moreover, the TGI in the experiment on CAKI-1 renal and in the experiment with SK-MEL-28 melanoma was over 100 µM each time.
For the compound `Clc1ccc(C2N3CCCCC3[C@@H]3c4[nH]c5ccccc5c4CCN23)cc1` (stereo partly drawn), the TGI was over 100 µM in the experiment on SF-295 CNS; over 100 µM in the experiment with OVCAR-5 ovarian; 55 µM in the experiment on HL-60(TB) leukemia; over 100 µM in the experiment on HOP-92 NSCLC; over 100 µM in the experiment on CAKI-1 renal; over 100 µM in the experiment on A498 renal. In addition, the TGI with SK-MEL-28 melanoma and in the experiment with HCT-116 colon was over 100 µM in each case.
On to `O=C1C=CC(=Nc2ccc3c(c2)C(Br)c2ccccc2-3)O1` (stereo not drawn), for which the TGI in the experiment on SF-295 CNS, with HL-60(TB) leukemia, in the experiment on COLO 205 colon, with SK-MEL-28 melanoma and in the experiment on HCT-116 colon was over 100 µM throughout.
